This is an account of results in patent US8304577B2, “Modulators of G protein-coupled receptor 88” (Bristol-Myers Squibb Company, priority 2009, dated 2012).

For the experiment, the target named is G protein-coupled receptor 88 (GPR88) (Homo sapiens, UniProt Q9GZN0). Kind of experiment: GPR88 functional assay: EC50 of Table 2 (GTPγS assay and cAMP HTRF assay described; table does not say which). The conditions noted are these: read-out: Range (EC50). The experiment is classed as cell-based. The method, then: 96 well GTPγS assay plates were purchased from Perkin Elmer. Wheat Germ Agglutinin PVT SPA beads and ^35S-GTPγS were purchased from Amersham GDP, GTPγS and all buffer reagents were from Sigma. 384 well white NBS plates were purchased from corning. Pertussis toxin was purchased from Calbiochem. All cell culture reagents were purchased from Invitrogen. Forskolin was purchased from Sigma. The cAMP HTRF kit was purchased fron Cisbio International.
Sequence of G protein-coupled receptor 88 (GPR88) (Q9GZN0 whole entry, species assumed): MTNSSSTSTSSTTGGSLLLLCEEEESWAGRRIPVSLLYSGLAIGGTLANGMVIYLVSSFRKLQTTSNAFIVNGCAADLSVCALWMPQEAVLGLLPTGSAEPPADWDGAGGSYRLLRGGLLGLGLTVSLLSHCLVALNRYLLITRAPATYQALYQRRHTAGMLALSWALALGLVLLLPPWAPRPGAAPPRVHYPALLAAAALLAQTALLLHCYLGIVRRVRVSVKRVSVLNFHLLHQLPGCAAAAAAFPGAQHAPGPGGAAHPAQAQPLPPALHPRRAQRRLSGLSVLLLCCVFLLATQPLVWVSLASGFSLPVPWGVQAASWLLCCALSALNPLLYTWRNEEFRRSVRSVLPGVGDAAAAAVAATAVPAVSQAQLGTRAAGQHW
The GTPγS assay buffer consisted of 10 mM MgCl2, 180 mM NaCl, 200 uM GDP, 0.167 mg/mL DTT, 1 mM EGTA and 20 mM HEPES pH7.4. This buffer was used for dilution of membranes, beads, and ^35S GTPγS components. To each well of the 96 well assay plate 48 ul assay buffer, 2 ul of 100× compound, 50 ul membrane solution (0.2 ug/ul), 50 ul ^35S GTPγS solution (0.8 nM) and 50 ul of SPA beads (10 mg/mL). Non-specific binding was determined by the addition of cold GTPγS to control wells. The plates were sealed with clear sealing tape and incubated at room temperature for 1 hour. GTPγS activity was detected using a Wallac Micro-Beta Trilux liquid scintillation counter. Non-specific binding was determined using 10 uM cold GTPγS.
The cAMP HTRF assay is modified from the Cisbio International kit procedure 62AM4PEJ. Assay plates were prepared by stamping 0.1 ul of 100× compound stock solutions diluted in DMSO or DMSO alone into 384 well NBS plates. The cAMP HTRF assay was performed using cells in suspension. The cAMP HTRF assay buffer consisted of Hank's Balanced Salt Solution (HBSS), 2 mM CaCl2, 5 mM MgCl2, 20 mM HEPES and 1 mM 3-isobutyl-1-methylxanthine (IBMX) (added fresh at the time of assay). For pertussis toxin treatment pertussis toxin (100 ng/mL) was added to culture medium for 16 hours prior to assay. Confluent cells were disrupted with cell dissociation buffer count cells then centrifuged at 1000×g for 5 minutes. The cell pellet was resuspended in assay buffer alone for basal cAMP measurements or with 0.75 uM forskolin (added immediately prior to addition to wells) for addition to all other wells. Using a Multidrop 384 (Lab systems) 10 ul of cell suspension was added to each well containing compound or DMSO. The plates were incubated at room temperature for 30 minutes covered. During this time the cAMP standard curve was prepared as per manufacturer's instruction. At the end of the incubation 10 ul of anti-cAMP cryptate and 10 ul cAMP-XL, diluted in manufacturer's lysis buffer, were added to each well. The plated were incubated at room temperature for 60 minutes covered then read on an Envision plate reader (Perkin Elmer) and the 665 nm/620 nm fluorescence ratio determined Fluorescence ratio values were converted to molar cAMP concentrations from the standard curve using the GraphPad Prism program.

Like-named read-outs stand apart in the source and are kept apart here.

As to `CCCC(C)COc1ccc([C@H](CNC(=O)[C@@H](C)N)NC(=O)[C@@H](C)c2ccccc2)cc1` (stereo partly drawn) [Example 29, (2R)-2-Amino-N-((2R)-2-(4-(2-methylpentyloxy)phenyl)-2-((S)-2-phenylpropanamido)ethyl)propanamide], the EC50 (class symbol) was in the range of 100 to 200 nM. Take `CCCC(C)COc1ccc([C@H](CNC(=O)[C@H](N)C2CC2)NC(=O)[C@@H](C)c2ccccc2)cc1` (stereo partly drawn) [Example 30, (2S)-N-((1R)-2-((R)-2-Amino-2-cyclopropylacetamido)-1-(4-(2-methylpentyloxy)phenyl)ethyl)-2-phenylpropanamide]: where the note is “class symbol”, the EC50 lay within 100 to 200 nM. With `CCCC(C)COc1ccc([C@H](CNC(=O)[C@H](N)CCC)NC(=O)[C@@H](C)c2ccccc2)cc1` (stereo partly drawn) [Example 31, (2R)-2-Amino-N-((2R)-2-(4-(2-methylpentyloxy)phenyl)-2-((S)-2-phenylpropanamido)ethyl)pentanamide], the EC50 (class symbol) is 100 to 200 nM.

For the compound `CCCC(C)COc1ccc([C@H](CNC(=O)[C@@H](N)[C@@H](C)OC)NC(=O)[C@@H](C)c2ccccc2)cc1` (stereo partly drawn) [Example 32, (2S,3R)-2-Amino-3-methoxy-N-((2R)-2-(4-(2-methylpentyloxy)phenyl)-2-((S)-2-phenylpropanamido)ethyl)butanamide], where the note is “class symbol”, the EC50 lay in the range of 100 to 200 nM. Consider `CCCC(C)COc1ccc([C@H](CNC(=O)[C@H](N)[C@@H](C)CC)NC(=O)[C@@H](C)c2ccccc2)cc1` (stereo partly drawn) [Example 33, (2R,3S)-2-Amino-3-methyl-N-((2R)-2-(4-(2-methylpentyloxy)phenyl)-2-((S)-2-phenylpropanamido)ethyl)pentanamide], for which the EC50 (class symbol) was in the range of 100 to 200 nM. In the case of `CCCC(C)COc1ccc([C@H](CNC(=O)[C@H](N)Cc2cscn2)NC(=O)[C@@H](C)c2ccccc2)cc1` (stereo partly drawn) [Example 34, (2R)-2-Amino-N-((2R)-2-(4-(2-methylpentyloxy)phenyl)-2-((S)-2-phenylpropanamido)ethyl)-3-(thiazol-4-yl)propanamide], the EC50 (class symbol) fell in the range of 100 to 200 nM. As for `CCCC(C)COc1ccc([C@H](CN2CCOCC2)NC(=O)[C@@H](C)c2ccccc2)cc1` (stereo partly drawn) [Example 35, (2S)-N-((1R)-1-(4-(2-Methylpentyloxy)phenyl)-2-morpholinoethyl)-2-phenylpropanamide], the EC50 (class symbol) fell in the range of 100 to 200 nM. Same read-out and setting: to `CC[C@H](C)COc1ccc([C@H](CN)NC(=O)[C@@H](C)c2ccccc2)cc1` [Example 37, (2S)-N-((1R)-2-Amino-1-[4-((S)-2-methylbutoxy)phenyl]-ethyl)-2-phenylpropionamide] belongs 39 to 99 nM; to `CCCNC[C@H](NC(=O)[C@@H](C)c1ccccc1)c1ccc(OC[C@@H](C)CC)cc1` [Example 38, (S)-N-{(R)-1-[4-((S)-2-Methyl-butoxy)-phenyl]-2-propylamino-ethyl}-2-phenylpropionamide], 100 to 200 nM; to `CC[C@H](C)COc1ccc([C@@H](NC(=O)[C@@H](C)c2ccccc2)[C@@H](C)O)cc1` [Example 39, (S)-N-{(1R,2R)-2-Hydroxy-1-[4-((S)-2-methyl-butoxy)-phenyl]-propyl}-2-phenylpropionamide], 100 to 200 nM. For the compound `CC(C)COc1ccc([C@@H](NC(=O)[C@@H](C)c2ccccc2)[C@H]2CCCN2)cc1` [Example 40, (S)-N-((R)-(4-Isobutoxyphenyl)((R)-pyrrolidin-2-yl)methyl)-2-phenylpropanamide], the EC50 (exact value given) was found to be 254 nM.
